This is an account of results in patent US5051419A, “Prevention or elimination of mycoplasma contamination of animal or plant cell cultures” (Dainippon Pharmaceutical Co., Ltd., priority 1988, dated 1991).

Each structure is given as a SMILES string. Converted amounts (≈) assume the structure as drawn.

Data set [1] deals with spontaneously contaminated human lung carcinoma cells [I]. Nature of the data set: Activity of eliminating spontaneously contaminated mycoplasmas, cell [I]. Note: key: +: mycoplasma positive; -: mycoplasma negative. Format: cell-based, mycoplasma species unknown; human cells. The method, then: Mycoplasma-contaminated L-929 cells were cultivated as described in the preceding section. A 1,000 μg/ml aqueous solution of a test chemical was prepared, and diluted to predetermined concentrations with Eagle's minimum essential medium. The diluted solutions were added to the culture medium. Two petri dishes were used for each concentration of the test chemical, and two circular cover glasses were put in one of them for examination of mycoplasma. No cover glass was put in the other petri dish, and it was used for subcultivation. Cultivation in the test chemical-containing medium was carried out for 4 days, and thereafter, the cultivation was continued for 3 weeks in a drug-free medium. Medium replacement was effected every 3 to 4 days, and subcultivation was carried out once a week. Examination for mycoplasma contamination was performed on the 4th and 7th days, and thereafter every week. The mycoplasmas were detected by the highly specific DNA-fluorochromic staining method.
(§1) The activity of test compound to eliminate mycoplasma contamination was tested as in Test Example 3 on spontaneously contaminated human lung carcinoma cells [I] and human melanoma cells [II].
(§2) The period during which the cultivation was continued in the presence of the test chemicals was 7 days, and the mycoplasma species which infected the cells were unknown.

Data set [2] relates to FL human-amnion cells. Nature of the data set: Cytotoxicity on FL cells (cell proliferation inhibition). Type of data set: cell-based. To be noted: for IC50: Homo sapiens, 72 h, FL cells, 3 days, read-out: IC50 (50% cell proliferation inhibitory concentration).
Procedure: (§3) Whether test chemicals would inhibit growth of cells was examined.
(§4) A 1,000 μg/ml aqueous solution of each of the test chemicals was serially diluted twofold with Eagle's minimum essential medium.
(§5) FL human-amnion cells (2×10^4 cells) were suspended in 3.6 ml of 10% FBS-MEM medium, put in petri dishes (diameter 60 mm) for tissue culture, and cultivated at 37° C. in 5% CO2 humidified atmosphere for 48 hours. The test chemical solution prepared as above was added in an amount of 0.4 ml to each of the petri dishes in predetermined concentrations, and the cells were cultivated for 3 days. After the cultivation, the medium was removed, and the remainder was washed once with Dulbecco's phosphate buffer (pH 7.4). The cells were peeled off by adding 0.2 ml of a 2.5% trypsin-0.002% EDTA mixed solution (1:9) and properly diluted with 10% FBS-MEM medium. Then, the number of the cells was counted by an Erma hemocytometer.
(§6) The cell proliferation rate was calculated by following formula [formula]
Assay in data set [3]: as above
To be noted: human, fl human amnion cells; ratio of FL cell IC50 to MIC for mycoplasmas. Format: cell-based, human.
Procedure: as §3, §4, §5, §6

Data set [4] deals with mycoplasma. To be noted: in words, background; cited from earlier work.
The test system of data set [5] is mycoplasma. Nature of the data set: Activity of eliminating spontaneously contaminated mycoplasmas, Test Example 4 as a whole. Format: cell-based. The method, then: as §1, §2
Data set [6] deals with chromosomes of animals or plants. Nature of the data set: Deleterious effects on chromosomes. To be noted: in words.

On to `CC1CN(c2c(F)c(N)c3c(=O)c(C(=O)O)cn(C4CC4)c3c2F)CCN1` (stereo not shown) [Compound 1], for which the mycoplasma elimination entry in data set [1] (0.2 μg/ml, day 0) was “+”; in data set [1] (0.2 μg/ml, day 7), “+”; in data set [1] (0.2 μg/ml, day 14) it was “+”; in data set [1] (0.2 μg/ml, day 28) it was “+”; in data set [1] (0.39 μg/ml, day 0), “+”; in data set [1] (0.39 μg/ml, day 7) it was “-”. In addition, the mycoplasma elimination entry in data set [1] (0.39 μg/ml, day 14) is listed as “-”; in data set [1] (0.39 μg/ml, day 28), “-”. Besides, the IC50 in data set [2] is 13.2 µg/mL (≈ 34.9 µM). The selectivity ratio at 72 h in data set [3] lay within 66 to 528.

Take `CN(C)c1ccc(O)c2c1C[C@H]1C[C@H]3[C@H](N(C)C)C(O)=C(C(N)=O)C(=O)[C@@]3(O)C(O)=C1C2=O` [Compound 3, minocycline]: in data set [4], the “minimum growth inhibitory concentration (MIC) for mycoplasma” value is listed as “low”; the “mode of action on mycoplasma” value was “only act bacteriostatically and not mycoplasmacidally”.

For `NCC1CN(c2c(F)c(N)c3c(=O)c(C(=O)O)cn(C4CC4)c3c2F)CCO1` (stereo not shown) [Compound A, 5-amino-7-(2-aminomethylmorpholino)-1-cyclopropyl-6,8-difluoro-1,4-dihydro-4-oxoquinoline-3-carboxylic acid], the mycoplasma elimination entry in data set [1] (0.1 μg/ml, day 0) is reported as “+”; in data set [1] (0.1 μg/ml, day 7), “+”; in data set [1] (0.1 μg/ml, day 14) it was “+”; in data set [1] (0.1 μg/ml, day 28), “+”; in data set [1] (0.2 μg/ml, day 0) it was “+”; in data set [1] (0.2 μg/ml, day 7), “-”. For the same molecule, the mycoplasma elimination result in data set [1] (0.2 μg/ml, day 14) is “-”; in data set [1] (0.2 μg/ml, day 28) it was “-”. The IC50 in data set [2] came to 18 µg/mL (≈ 45.6 µM). Moreover, the safety range result in data set [2] (in words, IC50/MIC) was “the safety range is broadest in compound A”. For the same molecule, the “toxicity on cultivated cells” value in data set [2] (in words, summary) is “little toxicity on cultivated cells”. For the same molecule, the selectivity ratio at 72 h in data set [3] fell in the range of 180 to 1440. Further, the minimal effective concentration (usually the smallest amount tested that counted as effective) in data set [5] (Mycoplasma, 168 h, spontaneously contaminated cells [I] and [II]) was 0.2 µg/mL. Besides, in data set [5] (fraction of that of control compound 1), the “mycoplasma eliminating concentration relative to control compound 1” value is 1/2. Besides, the “mycoplasma eliminating concentration relative to control compound 2 (ciprofloxacin)” value in data set [5] (fraction of that of control compound 2) is listed as 1/32. In data set [6], the “deleterious effects on chromosomes” value is on record as “excellent”.
